Patent US11077126B2 (priority 2017, dated 2021)

How the values were obtained:
[1] = system: transplanted tumor of human non-small cell lung cancer A549 cells; test: Human non-small cell lung cancer in nude mice model; settings: 30 mg/kg i.g. 30 d
Procedure: (§1) A549 cells in a logarithmic growth phase were taken and subjected to a trypan blue exclusion experiment showing that the cell viability was more than 95%, then the cells were subjected to trypsinization, centrifugation, and supernatant removal. Then cell concentration was adjusted to 1×10^7/ml with matrigel, then each nude mouse was inoculated subcutaneously with 0.2 ml of cells at its right armpit and recorded as the first day of inoculation. When the tumor growed to be greater than or equal to 100 mm^3, the mice were randomly divided into 5 groups with 6 mice in each group. […] Each group was continuously administered intragastrically for 30 days with a dose of 20 ml/kg. The mice were sacrificed the next day after drug withdrawal and the indicators were tested. The long diameter and short diameter of the tumor, and the body weight of each mouse were recorded every 3 days from drug administration to nude mouse sacrifice.
(§2) The body weight of the nude mice and the long diameter (a) and short diameter (b) of the transplanted tumor were measured every 3 days, and the tumor volume (v), relative tumor volume (RTV) and relative tumor proliferation rate (T/C) are calculated respectively according to the following formulas, wherein V=a×b^2/2; RTV=V/V0 (V0 is the tumor volume before administration, V is the tumor volume before sacrifice), and T/C (%)=treatment group RTV/model control group RTV×100%.
(§3) Each mouse was weighed and sacrificed. After the tumor was completely stripped off from the body of the mouse, the non-tumor tissues such as blood stains and fat were removed to weigh the tumor and calculate the tumor growth inhibition rate. The average tumor weight of each group of mice is used as an indicator of efficacy. Tumor growth inhibition rate (%)=(1−the average tumor weight of the treatment group/the average tumor weight of the model group)×100%.

[2] = system: transplanted tumor of human renal clear cell adenocarcinoma 786-O cells; test: Human renal clear cell adenocarcinoma in nude mice model; settings: 786-O nude mice; 30 mg/kg i.g. 30 d
Procedure: as §1, with “786-O” for “A549”, “matrigel, and” for “matrigel,”, “inoculation.” for “inoculation. When the tumor growed to be greater than or equal to 100 mm^3, the mice were randomly divided into 5 groups with 6 mice in each group.”
as §2, §3

[3] = system: transplanted tumor of human pancreatic cancer PANC-1 cells; test: Human pancreatic cancer in nude mice model
Procedure: (§4) Then cell concentration was adjusted to 1×10^7/ml with matrigel, and then each nude mouse was inoculated subcutaneously with 0.2 ml of cells at its right armpit and recorded as the first day of inoculation. […] Each group was continuously administered intragastrically for 30 days with a dose of 20 ml/kg. The mice were sacrificed the next day after drug withdrawal and the indicators were tested. The long diameter and short diameter of the tumor, and the body weight of each mouse were recorded every 3 days from drug administration to nude mouse sacrifice.
as §2, with “RTV×100%” for “RTV×100%.”
as §3

[4] = system: transplanted tumor of human gastric adenocarcinoma SGC7901 cells; test: Human gastric adenocarcinoma in nude mice model; settings: 30 mg/kg
Procedure: as §4, §2, §3

[5] = system: thymus and spleen of Lewis lung cancer tumor-bearing mice; test: Thymus index and spleen index of Lewis lung cancer tumor-bearing mice; assay type: in vivo, C57BL/6 mouse
Procedure: After the tumor-bearing mice are sacrificed, the spleen and thymus are weighed, and the spleen index and thymus index are calculated.

[6] = system: mouse bone marrow polychromatic erythrocytes; settings: NIH mice, cyclophosphamide 60 mg/kg positive control
Procedure: It is the object to test the mutagenic potential of drugs on mammalian somatic cells, and provide a basis for clinical drug use.
An appropriate amount of 0.5% sodium carboxymethyl cellulose solution was added to prepare a suspension, and the suspension was stored in a refrigerator at 4° C. The negative control was an equal amount of 0.5% sodium carboxymethylcellulose solution. The positive control was prepared as follows: an appropriate amount of cyclophosphamide used for injection was weighed, and was dissolved in normal saline at the time of use to prepare 60 mg/kg of solution.
6 mice per group. The doses, number of administrations, and bone marrow sampling time are selected in the pre-test.
The dose is reduced by ½ LD50 as the standard, and the number of administrations is one time. According to the pre-test results, the bone marrow sampling time is to sample 24 hours after administration.
At least three dose groups, respectively: 2,000 mg/kg, 1,000 mg/kg, 500 mg/kg
The number of administrations: one-time oral administration.
Oral (Intragastric) administration.
2.4.3 Bone marrow sampling time: 24 hours after administration.
The mice were sacrificed by cervical dislocation. Then the sternums were taken to remove the muscles thereon and the attachments were wiped with a gauze. Direct smear of bone marrow was used: the sternums were cut to expose the medullary cavity, and bone marrow was extruded and mixed well with a drop of calf serum on a slide beforehand as a push piece. After being dried, the slide was fixed in methanol for 10 minutes, and then after it was dried, it was then subjected to Giemsa staining. Each mouse was microscopically examined for about 1,000 polychromatic erythrocytes with intact contours of erythrocytes, and the frequency of occurrence of micronuclei and the ratio of polychromatic erythrocytes to erythrocytes were counted.

[7] = PANC-1 nude mice, 30 mg/kg i.g. 30 d
[8] = 26 mg/kg, positive drug group, n = 6

O=P1(N(CCCl)CCCl)NCCCO1 (stereo not shown) [Cyclophosphamide]
Body Weight (g)(d1) [1]: 20.89 ± 0.91 g
Body Weight (g)(d30) [1]: 18.97 ± 0.82 g
Inhibition Rate (%) [1]: 81.25%
Relative Tumor Proliferation Rate(T/C) [1]: 23.28%
Relative Tumor Volume (RTV) [1]: 3.97 ± 0.68
Tumor Volume (mm3) (d1) [1]: 127.26 ± 15.21 mm3
Tumor Volume (mm3) (d30) [1]: 504.75 ± 143.63 mm3
Tumor Weight [1]: 0.21 ± 0.11 g
Body Weight (g)(d1) [2]: 21.57 ± 1.31 g
Body Weight (g)(d30) [2]: 20.39 ± 1.02 g
Inhibition Rate (%) [2]: 71.36%
Relative Tumor Proliferation Rate(T/C) [2]: 19.93%
Relative Tumor Volume (RTV) [2]: 3.34 ± 0.68
Tumor Volume (mm3) (d1) [2]: 181.48 ± 31.63 mm3
Tumor Volume (mm3) (d30) [2]: 606.14 ± 14.34 mm3
Tumor Weight [2]: 0.62 ± 0.17 g
Relative Tumor Proliferation Rate(T/C) ([3]; 30 mg/kg): 54.55%
Relative Tumor Volume (RTV) ([3]; 30 mg/kg): 5.54 ± 0.72
Tumor Volume (mm3) (d1) ([3]; 30 mg/kg, d1): 93.73 ± 8.27 mm3
Tumor Volume (mm3) (d30) ([3]; 30 mg/kg, d30): 515.49 ± 32.36 mm3
Body Weight (g)(d1) [3, 7]: 21.89 ± 1.88 g
Body Weight (g)(d30) [3, 7]: 19.92 ± 1.68 g
Inhibition Rate (%) [3, 7]: 80.43%
Tumor Weight [3, 7]: 0.73 ± 0.09 g
Relative Tumor Proliferation Rate(T/C) [4]: 48.83%
Relative Tumor Volume (RTV) [4]: 7.86 ± 3.23
Tumor Weight [4]: 0.71 ± 0.08 g
Inhibition Rate (%) ([4]; by tumor weight): 70.97%
Body Weight (g)(d1) ([4]; d1): 21.80 ± 1.96 g
Tumor Volume (mm3) (d1) ([4]; d1): 102.45 ± 9.52 mm3
Body Weight (g)(d30) ([4]; d30): 20.25 ± 1.57 g
Tumor Volume (mm3) (d30) ([4]; d30): 799.74 ± 82.25 mm3
Spleen Index (%) [5, 8]: 0.41 ± 0.12 %
Thymus Index (%) [5, 8]: 0.12 ± 0.09%
spleen index compared with the control group ([5]; Lewis lung cancer tumor-bearing mice, cyclophosphamide, P<0.01): significantly lower
micronucleus rate relative to the negative control group [6]: 16.85 times
micronuclei of polychromatic erythrocytes compared with the negative control group ([6]; P<0.01): very significant increase
